Data: patent US9540332B2, “Benzimidazole derivatives as selective blockers of persistent sodium current” (Allergan, Inc., priority 2011, dated 2017)
“Also recorded” adds a separate entry of the source.

Experiments:
[1] = test system: seizures induced by a 6 Hz alternating current in mice; assay: 6 Hz seizure model; assay type: in vivo; conditions: for Protected/Tested: 6 Hz 32 milliamp; for Protected/Tested / Deaths: 0.50 hr; for Deaths: 6 Hz
[2] = test system: Experimental Autoimmune Encephalomyelitis (EAE); assay: Experimental Autoimmune Encephalomyelitis (EAE), clinical score and flash VEP; assay type: in vivo, rats
Description: Encephalomyelitis (EAE). (A) Representative flash Visual Evoked Potential (VEP) traces from baseline and following the induction of EAE. Three distinct peaks, N1, P2, N2 are labeled in the traces, with P2 being the most reproducible. Note that following the induction of EAE the latency to the P2 peak is increased. This is associated with a poor visual outcome in Optic Neuritis in humans. […] The maximum clinical score is the score associated with the most severe paralysis each animal experienced during the daily observation period.

[3] = test system: blue light induced photoreceptor injury; assay: blue light induced photoreceptor injury (ERG and histology); assay type: in vivo, Sprague Dawley rat
Experimental: Exposure to blue light results in a loss of photoreceptor cells in the outer retina (arrows).
Hemotoxylin and Eosin stained retinal sections are imaged and outer nuclear layer (ONL) thickness and cell count is evaluated in 8 consecutive regions on either side of the optic nerve head (ONH) (A). In Sprague Dawley rat the typical ONL thickness and photoreceptor cell counts adjacent to the ONH are approximately 40 microns and 10 cells, respectively (B). The cell counts and thicknesses from a retinal section taken from the vertical meridian reveal that in naïve retinae they are stable from just adjacent to ONH in to the ora serata (C,D).
Rat eyes were cut parallel to the vertical meridian through the optic nerve head and several sections were collected. […] Within each […] region, 3 measurements, […] apart, were conducted, averaged and reported as ONL thickness (um). The number of rod and cone nuclei spanning the outer nuclear layer at each measurement site were counted manually and tabulated as photoreceptor #. For each animal, two to three sections were analyzed and averaged to give a final quantifiable value.

[4] = test system: capsaicin-induced thermal hyperalgesia; assay: capsaicin-induced thermal hyperalgesia, plantar test; assay type: in vivo, rat; conditions: doses 10 mg/kg and above, i.p., FIG. 10
Description: A second method for evaluating of 1,2 substituted benzimidazoles on neuropathic pain was to determine their effects on capsaicin-induced thermal hyperalgesia in the rat.
Peripherally administered capsaicin (the active agent in chili peppers) induces an acute, local, inflammatory response through actions on nociceptive sensory nerve endings (‘pain fibers”). In rats, intraplantar injection of capsaicin produces decease in withdrawal latency to radiant heat (thermal hyperalgesia). This primary hyperalgesia, observed at the site of injury, is characterized by sensitization to thermal and mechanical stimulation. Primary hyperalgesia, especially that elicited by noxious thermal stimulus, is mediated, in part, by sensitization of C-fiber mechanoheat (polymodal) receptors (Kennis, 1982; Konietzny and Hensel, 1983; Simone, et al, 1987). […]
Intraplantar injection of capsaicin ([…]) was used to induce thermal hyperalgesia, as described previously(Gilchrist et al., 1996). […] For this test, hind paw withdrawal latencies (PWLs) to a noxious thermal stimulus were determined using the technique described by Hargreaves et al. (1988) using a plantar test apparatus (PAW
Thermal Analgesia Meter instrument Department of Anesthesiology, UCSD, San Diego, Calif.). Time to remove paw from heat source is measured and expressed as the paw withdrawal latency. […]
assessed 30 minutes after capsaicin challenge. […]

[5] = test system: mechanical allodynia produced by spinal nerve ligation; assay: spinal nerve ligation (Chung Model), mechanical allodynia, von Frey hairs; assay type: in vivo, rats
Experimental: To assess the actions of the presently claimed benzimdazole compounds in neuropathic pain their efficacy in reversing the mechanical allodynia produced by spinal nerve ligation (Chung Model) and reducing the thermal hyperalgesia produced by subcutaneous injection of capsaicin was determined.
In the Chung spinal nerve ligation model, rats are anesthetized before surgery. The surgical site is shaved and prepared either with betadine or Novacaine. Incision is made from the thoracic vertebra XIII down toward the sacrum. Muscle tissue is separated from the spinal vertebra (left side) at the L4-S2 levels. The L6 vertebra is located and the transverse process is carefully removed with a small rongeur to expose the L4-L6 spinal nerves. The L5 and L6 spinal nerves are isolated and tightly ligated with 6-0 silk thread. The same procedure is done on the right side as a control, except no ligation of the spinal nerves is performed. […]
Compounds to be tested were prepared as suspension in vehicle containing 2% sodium carboxymethylcellulose (CMC) and 1% Pluronic FI 27 by vigorous homogenization. […] Tactile allodynia was measured prior to and at increments of 15, 30, 60 and 90 minutes after drug administration using von Frey hairs that are a series of fine hairs with incremental differences in stiffness. […] The applied force has been calculated to range from 0.41 to 15.1 grams. […]

[6] = molecular target: T1, Nav1.3 (Homo sapiens, UniProt Q9NY46); assay: gigohm-seal manual patch-clamp (MPC) on HEK cells stably transfected with sodium channels; assay type: cell-based
T1 construct: expressed in transfected cells; host or cells: HEK cells, stably transfected
T1 sequence (Q9NY46 whole entry): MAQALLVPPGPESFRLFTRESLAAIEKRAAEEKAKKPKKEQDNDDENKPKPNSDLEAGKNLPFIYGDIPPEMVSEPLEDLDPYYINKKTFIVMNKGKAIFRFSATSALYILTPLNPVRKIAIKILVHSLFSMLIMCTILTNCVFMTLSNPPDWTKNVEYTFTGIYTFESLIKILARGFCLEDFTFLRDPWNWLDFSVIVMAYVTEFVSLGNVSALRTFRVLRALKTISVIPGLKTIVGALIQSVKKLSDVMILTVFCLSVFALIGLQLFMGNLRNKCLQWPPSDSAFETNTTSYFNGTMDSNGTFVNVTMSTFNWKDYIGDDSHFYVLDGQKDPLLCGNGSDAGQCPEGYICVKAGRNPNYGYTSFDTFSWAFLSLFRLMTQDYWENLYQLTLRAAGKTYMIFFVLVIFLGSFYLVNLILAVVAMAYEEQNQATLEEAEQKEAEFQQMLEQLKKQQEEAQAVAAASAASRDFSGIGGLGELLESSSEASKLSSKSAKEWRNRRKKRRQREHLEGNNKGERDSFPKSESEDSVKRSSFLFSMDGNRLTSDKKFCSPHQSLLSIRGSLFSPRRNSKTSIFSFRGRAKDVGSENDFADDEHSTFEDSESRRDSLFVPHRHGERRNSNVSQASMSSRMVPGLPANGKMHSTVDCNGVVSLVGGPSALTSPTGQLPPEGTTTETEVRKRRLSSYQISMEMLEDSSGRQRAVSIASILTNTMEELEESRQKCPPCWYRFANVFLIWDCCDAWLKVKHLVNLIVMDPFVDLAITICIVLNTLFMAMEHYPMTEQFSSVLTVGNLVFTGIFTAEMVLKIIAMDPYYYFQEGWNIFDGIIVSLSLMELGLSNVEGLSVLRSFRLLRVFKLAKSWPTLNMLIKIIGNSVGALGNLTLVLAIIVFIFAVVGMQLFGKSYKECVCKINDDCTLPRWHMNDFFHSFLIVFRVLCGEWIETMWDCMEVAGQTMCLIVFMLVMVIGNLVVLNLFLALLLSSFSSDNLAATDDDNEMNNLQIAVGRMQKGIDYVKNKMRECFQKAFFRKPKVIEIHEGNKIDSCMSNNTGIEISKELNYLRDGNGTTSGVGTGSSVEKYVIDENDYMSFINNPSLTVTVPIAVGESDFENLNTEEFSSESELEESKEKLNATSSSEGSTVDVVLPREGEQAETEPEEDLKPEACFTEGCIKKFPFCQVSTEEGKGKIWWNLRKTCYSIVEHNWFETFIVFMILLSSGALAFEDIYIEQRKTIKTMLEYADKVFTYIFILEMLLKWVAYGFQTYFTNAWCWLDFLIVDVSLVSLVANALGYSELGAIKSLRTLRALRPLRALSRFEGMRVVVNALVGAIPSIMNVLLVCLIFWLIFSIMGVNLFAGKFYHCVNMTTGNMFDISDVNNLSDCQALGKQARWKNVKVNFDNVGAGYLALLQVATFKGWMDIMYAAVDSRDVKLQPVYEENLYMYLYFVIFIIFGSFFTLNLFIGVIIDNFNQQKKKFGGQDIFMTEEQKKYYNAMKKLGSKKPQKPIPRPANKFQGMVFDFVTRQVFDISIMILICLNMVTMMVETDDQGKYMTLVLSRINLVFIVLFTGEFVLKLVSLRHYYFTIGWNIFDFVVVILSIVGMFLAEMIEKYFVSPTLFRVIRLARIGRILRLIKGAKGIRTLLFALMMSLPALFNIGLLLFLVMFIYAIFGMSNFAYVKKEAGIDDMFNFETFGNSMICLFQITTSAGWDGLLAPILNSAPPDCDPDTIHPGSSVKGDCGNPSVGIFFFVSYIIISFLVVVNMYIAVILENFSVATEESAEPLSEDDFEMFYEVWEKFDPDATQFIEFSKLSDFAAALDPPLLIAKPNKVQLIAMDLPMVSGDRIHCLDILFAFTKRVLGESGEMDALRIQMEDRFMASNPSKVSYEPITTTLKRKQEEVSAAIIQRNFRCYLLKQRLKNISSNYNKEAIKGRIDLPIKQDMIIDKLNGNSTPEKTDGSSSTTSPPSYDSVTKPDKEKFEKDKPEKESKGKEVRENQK
Experimental: Therefore, the efficacy and selectivity of the identified persistent current antagonists were verified using conventional gigohm-seal manual patch-clamp (MPC).
MPC experiments were conducted on human embroynic kidney (HEK) cells stably transfected with sodium channels were plated on coverslips. Cells were patch clamped using standard patch-clamp techniques (Hamill, O. P., A. Marty, et al., 1981 Pflugers Arch. 391:85-100). Once sufficient persistent current was established, buffer was introduced into the chamber at a constant flow rate of […] until the persistent current stabilized. Subsequent concentration-response experiments were conducted using this same flow rate. After application of the compound, current amplitude was monitored until equilibrium was established. The data recorded at equilibrium was normalized to the control current measured during perfusion with control buffer in the absence of a test compound. Adequate solution perfusion and gigohm seal stability were monitored throughout the experiment. The compound's antagonism of persistent or transient sodium currents is expressed as the IC5O of block for the respective current (see Table 1). Selectivity for block of the persistent current was calculated as the ratio of the IC5O for the transient current divided by the IC5O for the persistent current.

[7] = test system: rat cultured hippocampal pyramidal neurons; assay: spontaneous firing of cultured hippocampal neurons, whole cell current clamp; assay type: cell-based; conditions: 1 μM, FIG. 2
Experimental: Activity of the compounds on the rate of spontaneous firing of neurons was assessed in hippocampal neurons. Hippocampal cells from P-2 rats were cultured for 10-14 days prior to use. Cells were plated on laminin-coated cover slips that could be transferred to a perfusion chamber for conventional whole cell electrophysiological studies. Conventional whole cell current clamp methods were used to record steady state and spontaneous action potentials. Cells were held at their resting potential (Iclamp=0 pA) and spontaneous action potentials were recorded and followed over time. Healthy cells had low rates of spontaneous firing. Spontaneous firing rate increased with metabolic insults to cells, e.g. Mg^2+-depletion or with aging. Spontaneous firing appeared to occur more often in older cell cultures (10-14 days).
The “current clamp” mode was employed tomeasure frequency of spontaneous discharge and action potential bursting in the absence and presence of compound #3 (1 μM). […] The results of these experiments contribute to the efficacy profile of the compounds of the present invention.

COc1cccc(OCc2nc3ccc(OCCC(C)C)cc3n2CC(C)C)c1 [Compound #2, 1-Isobutyl-2-(3-methoxy-phenoxymethyl)-6-(3-methyl-butoxy)-1H-benzimidazole]
Protected/Tested ([1]; dose 12.5 mg/kg): 1/8 | Protected/Tested ([1]; dose 25.0 mg/kg): 3/8 | Protected/Tested ([1]; dose 50.0 mg/kg): 3/8 | Protected/Tested ([1]; dose 100.0 mg/kg): 5/8 | Protected/Tested ([1]; dose 200.0 mg/kg): 8/8 | Deaths ([1]; dose 12.5 mg/kg): 0 | Deaths ([1]; dose 25.0 mg/kg): 0 | Deaths ([1]; dose 50.0 mg/kg): 0 | Deaths ([1]; dose 100.0 mg/kg): 0 | Deaths ([1]; dose 200.0 mg/kg): 0 | EC50 in the 6 Hz seizure model ([1]; mice): 50.7 mg/kg | predicted TD50 ([1]; mice): > 500 mg/kg | VEP latency (P2 peak) ([2]; 50 mg/kg, FIG. 11 B, C): preserves VEP latency | maximum clinical score versus vehicle ([2]; FIG. 11): significantly (P<0.01) average lower clinical score | initial clinical sign of paralysis ([2]; dose of 30 mg/kg, FIG. 11): significantly reduces | retinal function and structure as determined by ERG and histology ([3]; 30 mg/kg i.p., 6 hour blue light exposure, FIG. 8): preserves retinal function and structure

C=C(C)Cn1c(COc2cccc(OC)c2)nc2ccccc21 [Compound #3, 1-[1-(2-methylprop-2-enyl)benzimidazol-2-ylmethoxy]-3-methoxybenzene]
capsaicin-induced thermal hyperalgesia [4]: significantly reduces | allodynia with respect to vehicle injected controls ([5]; doses of 300 mg/kg, i.p., FIG. 9): significantly reduced | reversal of mechanical allodynia ([5]; doses of 30 and 300 mg/kg, FIG. 9 legend): significantly reduced | concentration blocking 50% of the persistent current ([6]; FIG. 1): low to submicromolar | IC50 ([6]; FIG. 1, read-out: effective dose for blocking the transient current): > 30 µM | bursting activity (spontaneous bursts of action potentials) [7]: bursting activity was reduced | spontaneous discharge of action potentials [7]: potently decreased | retinal function as determined by ERG (b-wave and a-wave amplitude) ([3]; 100 mg/kg i.p., after blue light exposure, FIG. 6): significantly preserves retinal function | structural integrity of the retina by histology (ONL thickness, photoreceptor count) ([3]; 100 mg/kg i.p., after blue light exposure, FIG. 7): preserved the structural integrity of the retina; also recorded: protects photoreceptors from blue-light induced toxicity
